The values below come from patent publication US20240218022A1, “ANTI-VISTA MACROCYCLIC PEPTIDES AND COMPOSITIONS” (BRISTOL-MYERS SQUIBB COMPANY, priority 2022, published 2024).

Starred links: 1 amine or outer side, 2 acyl side, 3 side chain; linkers in the order of their positions; H or OH if unused. Positions of bridges follow the written chain, without caps; N, C: chain ends. Non-standard residues stand in square brackets, D forms with d. Residues, ends and D or L forms follow the SMILES beside them. ξ: configuration not given here. Phe(3-CF3) = N[C@@H](Cc1cccc(C(F)(F)F)c1)C(=O)O; Phe(4-CONH2) = NC(=O)c1ccc(C[C@H](N)C(=O)O)cc1; Phe(2,4-F2) = N[C@@H](Cc1ccc(F)cc1F)C(=O)O; X1 = C=CCOc1ccccc1C[C@H](N[*:1])C(=O)[*:2]; Phe(3-CN) = N#Cc1cccc(C[C@H](N)C(=O)O)c1; Phe(3-Cl) = N[C@@H](Cc1cccc(Cl)c1)C(=O)O; Phe(3-Me) = Cc1cccc(C[C@H](N)C(=O)O)c1; Phe(4-Me) = Cc1ccc(C[C@H](N)C(=O)O)cc1; Phe(2-Me) = Cc1ccccc1C[C@H](N)C(=O)O; Ahp(2) = CCCCC[C@H](N)C(=O)O; NMeNle = CCCC[C@H](NC)C(=O)O; Tle = CC(C)(C)[C@H](N)C(=O)O; NHexGly = CCCCCCNCC(=O)O; Nle = CCCC[C@H](N)C(=O)O; ξS = NC(CO)C(=O)O

This assay addresses T1, mouse VISTA (mVISTA) (Mus musculus, UniProt Q9D659).
T1 construct: expressed in transfected cells; host or cells: Human embryonic kidney 293T cells
T1 sequence (Q9D659 33-308): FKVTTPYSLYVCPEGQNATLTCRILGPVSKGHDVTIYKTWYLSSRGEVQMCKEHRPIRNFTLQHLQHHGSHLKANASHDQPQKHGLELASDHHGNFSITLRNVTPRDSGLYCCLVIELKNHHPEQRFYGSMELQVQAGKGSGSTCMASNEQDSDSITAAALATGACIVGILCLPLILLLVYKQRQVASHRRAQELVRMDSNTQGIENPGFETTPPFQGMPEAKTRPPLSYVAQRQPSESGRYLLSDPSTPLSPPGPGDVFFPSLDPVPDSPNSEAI
Briefly: Cell-Based Binding High-Content Assay For mVISTA (HC CBA mVISTA). As to conditions: read-out: HC CBA mVISTA IC50. In outline:
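Read-out: Alexa 647–streptavidin signal imaged on fixed, Hoechst-stained mVISTA-293T cells, with IC50 taken from a four-parameter logistic curve. Compounds competed with 2 nM biotinylated peptide for 30 min at room temperature, tested under both no-wash and wash (1 h compound, media exchange, 1 h) formats.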
In general, IC50 refers to the midpoint of a concentration-inhibition curve. Regarding `CCCCCCN1CC(=O)N[C@@H](Cc2ccc(O)cc2)C(=O)N[C@@H](CC(C)C)C(=O)N[C@@H](CC(N)=O)C(=O)N[C@@H](CCCNC(=N)N)C(=O)N(C)[C@@H](CCCC)C(=O)N[C@@H](CCCCC)C(=O)N2CCC[C@H]2C(=O)N[C@@H](C(C)C)C(=O)N[C@@H](CO)C(=O)N[C@H](C(=O)NCC(N)=O)CSCC(=O)N[C@@H](Cc2ccccc2C)C(=O)N[C@@H](Cc2ccc(O)cc2)C(=O)N[C@@H](CC(=O)O)C1=O` [compound 1204] ({CH2CO}-[Phe(2-Me)]YD[NHexGly]YLNR[NMeNle][Ahp(2)]PVSCG-NH2; thioether N-14), the IC50 is 18.4 nM.

On to `CCCCCCN1CC(=O)N[C@@H](Cc2ccc(O)cc2)C(=O)N[C@@H](CC(C)C)C(=O)N[C@@H](CC(N)=O)C(=O)N[C@@H](CCCNC(=N)N)C(=O)N(C)[C@@H](CCCC)C(=O)N[C@@H](CCCCC)C(=O)N2CCC[C@H]2C(=O)N[C@@H](C(C)(C)C)C(=O)N[C@@H](CO)C(=O)N[C@H](C(=O)NCC(N)=O)CSCC(=O)N[C@@H](Cc2ccccc2C)C(=O)N[C@@H](Cc2ccc(O)cc2)C(=O)N[C@@H](CC(=O)O)C1=O` [compound 1205] ({CH2CO}-[Phe(2-Me)]YD[NHexGly]YLNR[NMeNle][Ahp(2)]P[Tle]SCG-NH2; thioether N-14), for which the IC50 is 16.4 nM.

Take `C=CCOc1ccccc1C[C@@H]1NC(=O)CSC[C@@H](C(=O)NCC(N)=O)NC(=O)[C@H](CO)NC(=O)[C@H](C(C)(C)C)NC(=O)[C@@H]2CCCN2C(=O)[C@H](CCCCC)NC(=O)[C@H](CCCC)N(C)C(=O)[C@H](CCCNC(=N)N)NC(=O)[C@H](CC(N)=O)NC(=O)[C@H](CC(C)C)NC(=O)[C@H](Cc2ccc(O)cc2)NC(=O)CN(CCCCCC)C(=O)[C@H](CC(=O)O)NC(=O)[C@H](Cc2ccc(O)cc2)NC1=O` [compound 1206] ({CH2CO}-[X1]YD[NHexGly]YLNR[NMeNle][Ahp(2)]P[Tle]SCG-NH2; thioether N-14): the 50% inhibitory concentration (IC50) amounted to 28.2 nM.

As to `CCCCCCN1CC(=O)N[C@@H](Cc2ccc(O)cc2)C(=O)N[C@@H](CC(C)C)C(=O)N[C@@H](CC(N)=O)C(=O)N[C@@H](CCCNC(=N)N)C(=O)N(C)[C@@H](CCCC)C(=O)N[C@@H](CCCCC)C(=O)N2CCC[C@H]2C(=O)N[C@@H](C(C)(C)C)C(=O)N[C@@H](CO)C(=O)N[C@H](C(=O)NCC(N)=O)CSCC(=O)N[C@@H](Cc2cccc(C(F)(F)F)c2)C(=O)N[C@@H](Cc2ccc(O)cc2)C(=O)N[C@@H](CC(=O)O)C1=O` [compound 1207] ({CH2CO}-[Phe(3-CF3)]YD[NHexGly]YLNR[NMeNle][Ahp(2)]P[Tle]SCG-NH2; thioether N-14), the half-maximal inhibitory concentration (IC50) turned out to be 24.5 nM.

Consider `CCCCCCN1CC(=O)N[C@@H](Cc2ccc(O)cc2)C(=O)N[C@@H](CC(C)C)C(=O)N[C@@H](CC(N)=O)C(=O)N[C@@H](CCCNC(=N)N)C(=O)N(C)[C@@H](CCCC)C(=O)N[C@@H](CCCCC)C(=O)N2CCC[C@H]2C(=O)N[C@@H](C(C)C)C(=O)N[C@@H](CO)C(=O)N[C@H](C(=O)NCC(N)=O)CSCC(=O)N[C@@H](Cc2cccc(Cl)c2)C(=O)N[C@@H](Cc2ccc(O)cc2)C(=O)N[C@@H](CC(=O)O)C1=O` [compound 1208] ({CH2CO}-[Phe(3-Cl)]YD[NHexGly]YLNR[NMeNle][Ahp(2)]PVSCG-NH2; thioether N-14), for which the 50% inhibitory concentration (IC50) came to 27.7 nM.

Turning to `CCCCCCN1CC(=O)N[C@@H](Cc2ccc(O)cc2)C(=O)N[C@@H](CC(C)C)C(=O)N[C@@H](CC(N)=O)C(=O)N[C@@H](CCCNC(=N)N)C(=O)N(C)[C@@H](CCCC)C(=O)N[C@@H](CCCCC)C(=O)N2CCC[C@H]2C(=O)N[C@@H](C(C)(C)C)C(=O)N[C@@H](CO)C(=O)N[C@H](C(=O)NCC(N)=O)CSCC(=O)N[C@@H](Cc2cccc(Cl)c2)C(=O)N[C@@H](Cc2ccc(O)cc2)C(=O)N[C@@H](CC(=O)O)C1=O` [compound 1209] ({CH2CO}-[Phe(3-Cl)]YD[NHexGly]YLNR[NMeNle][Ahp(2)]P[Tle]SCG-NH2; thioether N-14), the IC50 amounted to 33.2 nM.

With `CCCCCCN1CC(=O)N[C@@H](Cc2ccc(O)cc2)C(=O)N[C@@H](CC(C)C)C(=O)N[C@@H](CC(N)=O)C(=O)N[C@@H](CCCNC(=N)N)C(=O)N(C)[C@@H](CCCC)C(=O)N[C@@H](CCCCC)C(=O)N2CCC[C@H]2C(=O)N[C@@H](C(C)(C)C)C(=O)N[C@@H](CO)C(=O)N[C@H](C(=O)NCC(N)=O)CSCC(=O)N[C@@H](Cc2cccc(C#N)c2)C(=O)N[C@@H](Cc2ccc(O)cc2)C(=O)N[C@@H](CC(=O)O)C1=O` [compound 1210] ({CH2CO}-[Phe(3-CN)]YD[NHexGly]YLNR[NMeNle][Ahp(2)]P[Tle]SCG-NH2; thioether N-14), the IC50 was 38.3 nM.

Consider `CCCCCCN1CC(=O)N[C@@H](Cc2ccc(O)cc2)C(=O)N[C@@H](CCCC)C(=O)N[C@@H](CC(N)=O)C(=O)N[C@@H](CCCNC(=N)N)C(=O)N(C)[C@@H](CCCC)C(=O)N[C@@H](CCCCC)C(=O)N2CCC[C@H]2C(=O)N[C@@H](C(C)C)C(=O)N[C@@H](CC(=O)O)C(=O)N[C@H](C(=O)NCC(=O)O)CSCC(=O)N[C@@H](Cc2cccc(C)c2)C(=O)N[C@@H](Cc2ccc(O)cc2)C(=O)N[C@@H](CC(=O)O)C1=O` [compound 1211] ({CH2CO}-[Phe(3-Me)]YD[NHexGly]Y[Nle]NR[NMeNle][Ahp(2)]PVDCG-OH; thioether N-14), for which the IC50 was determined as 22.1 nM.

As for `CCCCCCN1CC(=O)N[C@@H](Cc2ccc(O)cc2)C(=O)N[C@@H](CC(C)C)C(=O)N[C@@H](CC(N)=O)C(=O)N[C@@H](CCCNC(=N)N)C(=O)N(C)[C@@H](CCCC)C(=O)N[C@@H](CCCCC)C(=O)N2CCC[C@H]2C(=O)N[C@@H](C(C)(C)C)C(=O)N[C@@H](CO)C(=O)N[C@H](C(=O)NCC(N)=O)CSCC(=O)N[C@@H](Cc2ccc(C(N)=O)cc2)C(=O)N[C@@H](Cc2ccc(O)cc2)C(=O)N[C@@H](CC(=O)O)C1=O` [compound 1212] ({CH2CO}-[Phe(4-CONH2)]YD[NHexGly]YLNR[NMeNle][Ahp(2)]P[Tle]SCG-NH2; thioether N-14), the IC50 amounted to 13.1 nM.

Consider `CCCCCCN1CC(=O)N[C@@H](Cc2ccc(O)cc2)C(=O)N[C@@H](CC(C)C)C(=O)N[C@@H](CC(N)=O)C(=O)N[C@@H](CCCNC(=N)N)C(=O)N(C)[C@@H](CCCC)C(=O)N[C@@H](CCCCC)C(=O)N2CCC[C@H]2C(=O)N[C@@H](C(C)C)C(=O)N[C@@H](CO)C(=O)N[C@H](C(=O)NCC(N)=O)CSCC(=O)N[C@@H](Cc2ccc(C(N)=O)cc2)C(=O)N[C@@H](Cc2ccc(O)cc2)C(=O)N[C@@H](CC(=O)O)C1=O` [compound 1213] ({CH2CO}-[Phe(4-CONH2)]YD[NHexGly]YLNR[NMeNle][Ahp(2)]PVSCG-NH2; thioether N-14), for which the IC50 came to 27.1 nM.

For the compound `CCCCCCN1CC(=O)N[C@@H](Cc2ccc(O)cc2)C(=O)N[C@@H](CC(C)C)C(=O)N[C@@H](CC(N)=O)C(=O)N[C@@H](CCCNC(=N)N)C(=O)N(C)[C@@H](CCCC)C(=O)N[C@@H](CCCCC)C(=O)N2CCC[C@H]2C(=O)N[C@@H](C(C)C)C(=O)N[C@@H](CO)C(=O)N[C@H](C(=O)NCC(N)=O)CSCC(=O)N[C@@H](Cc2ccc(C)cc2)C(=O)N[C@@H](Cc2ccc(O)cc2)C(=O)N[C@@H](CC(=O)O)C1=O` [compound 1214] ({CH2CO}-[Phe(4-Me)]YD[NHexGly]YLNR[NMeNle][Ahp(2)]PVSCG-NH2; thioether N-14), the IC50 came out at 23.3 nM.

With `CCCCCCN1CC(=O)N[C@@H](Cc2ccc(O)cc2)C(=O)N[C@@H](CC(C)C)C(=O)N[C@@H](CC(N)=O)C(=O)N[C@@H](CCCNC(=N)N)C(=O)N(C)[C@@H](CCCC)C(=O)N[C@@H](CCCCC)C(=O)N2CCC[C@H]2C(=O)N[C@@H](C(C)(C)C)C(=O)N[C@@H](CO)C(=O)N[C@H](C(=O)NCC(N)=O)CSCC(=O)N[C@@H](Cc2ccc(C)cc2)C(=O)N[C@@H](Cc2ccc(O)cc2)C(=O)N[C@@H](CC(=O)O)C1=O` [compound 1215] ({CH2CO}-[Phe(4-Me)]YD[NHexGly]YLNR[NMeNle][Ahp(2)]P[Tle]SCG-NH2; thioether N-14), the IC50 amounted to 16.7 nM.

For `CCCCCCN1CC(=O)N[C@@H](Cc2ccc(O)cc2)C(=O)N[C@@H](CCCCC)C(=O)N[C@@H](CC(N)=O)C(=O)N[C@@H](CCCNC(=N)N)C(=O)N(C)[C@@H](CCCC)C(=O)N[C@@H](CCCCC)C(=O)N2CCC[C@H]2C(=O)N[C@@H](C(C)C)C(=O)N[C@@H](CC(=O)O)C(=O)N[C@H](C(=O)NCC(=O)O)CSCC(=O)N[C@@H](Cc2ccc(F)cc2F)C(=O)N[C@@H](Cc2ccc(F)cc2F)C(=O)N[C@@H](CC(=O)O)C1=O` [compound 1216] ({CH2CO}-[Phe(2,4-F2)][Phe(2,4-F2)]D[NHexGly]Y[Ahp(2)]NR[NMeNle][Ahp(2)]PVDCG-OH; thioether N-14), the IC50 came out at 12.9 nM.

Turning to `CCCCCCN1CC(=O)N[C@@H](Cc2ccc(O)cc2)C(=O)N[C@@H](CCCCC)C(=O)N[C@@H](CC(N)=O)C(=O)N[C@@H](CCCNC(=N)N)C(=O)N(C)[C@@H](CCCC)C(=O)N[C@@H](CCCCC)C(=O)N2CCC[C@H]2C(=O)N[C@@H](C(C)C)C(=O)N[C@@H](C(C)C)C(=O)N[C@H](C(=O)NCC(=O)O)CSCC(=O)N[C@@H](Cc2ccc(F)cc2F)C(=O)N[C@@H](Cc2ccc(F)cc2F)C(=O)N[C@@H](CC(=O)O)C1=O` [compound 1217] ({CH2CO}-[Phe(2,4-F2)][Phe(2,4-F2)]D[NHexGly]Y[Ahp(2)]NR[NMeNle][Ahp(2)]PVVCG-OH; thioether N-14), the concentration for half-maximal inhibition (IC50) was 16.2 nM.

With `CCCCCCN1CC(=O)N[C@@H](Cc2ccc(O)cc2)C(=O)N[C@@H](CCCCC)C(=O)N[C@@H](CC(N)=O)C(=O)N[C@@H](CCCNC(=N)N)C(=O)N(C)[C@@H](CCCC)C(=O)N[C@@H](CCCCC)C(=O)N2CCC[C@H]2C(=O)N[C@@H](C(C)C)C(=O)N[C@@H](CC(=O)O)C(=O)N[C@H](C(=O)NC(CO)C(=O)O)CSCC(=O)N[C@@H](Cc2ccc(F)cc2F)C(=O)N[C@@H](Cc2ccc(F)cc2F)C(=O)N[C@@H](CC(=O)O)C1=O` (stereo partly drawn) [compound 1218] ({CH2CO}-[Phe(2,4-F2)][Phe(2,4-F2)]D[NHexGly]Y[Ahp(2)]NR[NMeNle][Ahp(2)]PVDC[ξS]-OH; thioether N-14), the IC50 was 23.6 nM.
